Measured values reported in patent US9695155B2, “Herbicidal substituted pyrimidinyloxy benzene compounds” (E. I. DU PONT DE NEMOURS AND COMPANY, priority 2013, dated 2017).

What was measured:
[1] = system: morningglory; test: Test A preemergence; format: in vivo, Ipomoea spp.; details: for Morningglory plant response rating (0 to 100 scale): 125 g ai/ha
In short: (§1)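 Pre- and postemergence greenhouse screen. Soil: loam + sand. Spray carrier: solvent mixture, non-phytotoxic, with surfactant. Post timing at 1–2 leaves, height 2–10 cm. Readout: visual injury on a 0–100 scale roughly 10 days after application, untreated plants as reference.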

[2] = system: velvetleaf; test: Test A preemergence; format: in vivo, Abutilon theophrasti; details: for Velvetleaf plant response rating (0 to 100 scale): 125 g ai/ha
In short: as §1

[3] = system: wheat; test: Test A preemergence; format: in vivo, Triticum aestivum; details: for Wheat plant response rating (0 to 100 scale): 125 g ai/ha
In short: as §1

[4] = system: morningglory; test: Test A postemergence; format: in vivo, Ipomoea spp.; details: 0 to 100 scale where 0 is no effect and 100 is complete control; for Morningglory plant response rating: 125 g ai/ha
In short: as §1

[5] = system: velvetleaf; test: Test A postemergence; format: in vivo, Abutilon theophrasti; details: 0 to 100 scale where 0 is no effect and 100 is complete control; for Velvetleaf plant response rating: 125 g ai/ha
In short: as §1

[6] = system: wheat; test: Test A postemergence; format: in vivo, Triticum aestivum; details: 0 to 100 scale where 0 is no effect and 100 is complete control
In short: as §1

[7] = system: sedge, umbrella; test: Test B flooded paddy test; format: in vivo, Cyperus difformis; details: Flood, 250 g ai/ha, 0 to 100 scale where 0 is no effect and 100 is complete control
In short: (§2)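 Visual ratings on a 0 to 100 scale, where 100 means complete control, compared treated plants with controls after 13 to 15 days in a greenhouse. Treatment went into paddy water 3 cm deep over the soil, applied to plants at the 2-leaf stage.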

[8] = system: Heteranthera limosa; test: Test B flooded paddy test; format: in vivo; details: Flood, 250 g ai/ha, 0 to 100 scale where 0 is no effect and 100 is complete control
In short: as §2

[9] = system: blackgrass; test: Test C preemergence; format: in vivo, Alopecurus myosuroides
In short: (§3)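 Greenhouse herbicide screen. Pre: seeded loam/sand, sprayed at planting. Post: 1–4 leaf plants (2–18 cm) in peat-based mix. Formulation: solvent mixture + surfactant, non-phytotoxic. Readout: visual % control vs untreated, 13–15 d; dash = not tested.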

[10] = system: Italian ryegrass; test: Test C preemergence; format: in vivo, Lolium multiflorum; details: preemergence
In short: as §3

[11] = system: wheat, winter; test: Test C preemergence; format: in vivo, Triticum aestivum; details: preemergence
In short: as §3

[12] = system: johnsongrass; test: Test C preemergence; format: in vivo, Sorghum halepense; details: preemergence
In short: as §3

[13] = system: ragweed; test: Test C preemergence; format: in vivo, Ambrosia elatior; details: preemergence
In short: as §3

[14] = system: velvetleaf; test: Test C preemergence; format: in vivo, Abutilon theophrasti; details: preemergence
In short: as §3

[15] = system: pigweed; test: Test C postemergence; format: in vivo, Amaranthus retroflexus; details: for Pigweed plant response rating: 31 g ai/ha, 13 to 15 days
In short: as §3

[16] = system: waterhemp; test: Test C postemergence; format: in vivo, Amaranthus rudis; details: for Waterhemp plant response rating: 31 g ai/ha, 13 to 15 days
In short: as §3

[17] = postemergence, visual rating, scale 0 to 100 (0 no effect, 100 complete control)
[18] = 500 g ai/ha, 0 to 100 scale where 0 is no effect and 100 is complete control
[19] = 16 g ai/ha, scale 0 to 100 (0 no effect, 100 complete control)
[20] = 62 g ai/ha, scale 0 (no effect) to 100 (complete control)
[21] = 125 g ai/ha, scale 0 (no effect) to 100 (complete control)
[22] = 16 g ai/ha, postemergence, 0 is no effect, 100 is complete control
[23] = 125 g ai/ha, postemergence, visual rating, scale 0 to 100 (0 no effect, 100 complete control)
[24] = Postemergence, 62 g ai/ha, scale 0 to 100 (0 no effect, 100 complete control)

FC(F)(F)c1cn(-c2ccccc2Oc2ncc(Cl)cn2)nn1 [Compound 166, 5-chloro-2-[2-[4-(trifluoromethyl)-1H-1,2,3-triazol-1-yl]phenoxy]pyrimidine]
Morningglory plant response rating (0 to 100 scale) [1]: 100
pest or weed control at 500 g/ha ([1]; Ipomoea, pre-emergence, 240 h, 500 g ai/ha, 0 to 100 scale where 0 is no effect and 100 is complete control, read-out: Morningglory plant response rating): 100%
Velvetleaf plant response rating (0 to 100 scale) [2]: 100
pest or weed control at 500 g/ha ([2]; Abutilon theophrasti, pre-emergence, 240 h, 500 g ai/ha, 0 to 100 scale where 0 is no effect and 100 is complete control, read-out: Velvetleaf plant response rating): 100%
Wheat plant response rating (0 to 100 scale) [3]: 50
plant injury at 500 g/ha ([3]; Triticum aestivum, pre-emergence, 240 h, 500 g ai/ha, 0 to 100 scale where 0 is no effect and 100 is complete control, read-out: Wheat plant response rating): 80%
Morningglory plant response rating [4]: 100
pest or weed control at 500 g/ha ([4]; Ipomoea, post-emergence, 240 h, 500 g ai/ha, read-out: Plant response rating, Morningglory): 100%
Velvetleaf plant response rating [5]: 100
pest or weed control at 500 g/ha ([5]; Abutilon theophrasti, post-emergence, 240 h, 500 g ai/ha, read-out: Plant response rating, Velvetleaf): 100%
plant injury at 125 g/ha ([6]; Triticum aestivum, post-emergence, 240 h, 125 g ai/ha, read-out: Wheat plant response rating): 60%
plant injury at 500 g/ha ([6]; Triticum aestivum, post-emergence, 240 h, 500 g ai/ha, read-out: Plant response rating, Wheat): 70%
pest or weed control at 250 g/ha ([7]; Cyperus difformis, read-out: Plant response rating, Sedge, Umbrella): 95%
pest or weed control at 250 g/ha ([8]; Heteranthera limosa, read-out: Plant response rating, Ducksalad): 95%
pest or weed control at 16 g/ha ([9]; Alopecurus myosuroides, pre-emergence, 16 g ai/ha, preemergence, scale 0 to 100 (0 no effect, 100 complete control), read-out: Blackgrass plant response rating): 40%
pest or weed control at 62 g/ha ([9]; Alopecurus myosuroides, pre-emergence, 62 g ai/ha, preemergence, scale 0 (no effect) to 100 (complete control), read-out: Blackgrass plant response rating): 90%
pest or weed control at 125 g/ha ([9]; Alopecurus myosuroides, pre-emergence, 125 g ai/ha, preemergence, scale 0 (no effect) to 100 (complete control), read-out: Blackgrass plant response rating): 100%
pest or weed control at 31 g/ha ([9]; Alopecurus myosuroides, pre-emergence, Preemergence, 31 g ai/ha, scale 0 to 100, 0 no effect, 100 complete control, read-out: Plant response rating, Blackgrass): 85%
pest or weed control at 16 g/ha ([10]; Lolium multiflorum, pre-emergence, 16 g ai/ha, scale 0 to 100 (0 no effect, 100 complete control), read-out: Ryegrass, Italian plant response rating): 5%
pest or weed control at 62 g/ha ([10]; Lolium multiflorum, pre-emergence, 62 g ai/ha, scale 0 (no effect) to 100 (complete control), read-out: Ryegrass, Italian plant response rating): 90%
pest or weed control at 125 g/ha ([10]; Lolium multiflorum, pre-emergence, 125 g ai/ha, scale 0 (no effect) to 100 (complete control), read-out: Ryegrass, Italian plant response rating): 90%
plant injury at 16 g/ha ([11]; Triticum aestivum, pre-emergence, 16 g ai/ha, scale 0 to 100 (0 no effect, 100 complete control), read-out: Wheat plant response rating): 0%
plant injury at 62 g/ha ([11]; Triticum aestivum, pre-emergence, 62 g ai/ha, scale 0 (no effect) to 100 (complete control), read-out: Wheat plant response rating): 60%
plant injury at 125 g/ha ([11]; Triticum aestivum, pre-emergence, 125 g ai/ha, scale 0 (no effect) to 100 (complete control), read-out: Wheat plant response rating): 90%
pest or weed control at 16 g/ha ([12]; Sorghum halepense, pre-emergence, 16 g ai/ha, scale 0 to 100 (0 no effect, 100 complete control), read-out: Johnsongrass plant response rating): 5%
pest or weed control at 62 g/ha ([12]; Sorghum halepense, pre-emergence, 62 g ai/ha, scale 0 (no effect) to 100 (complete control), read-out: Johnsongrass plant response rating): 85%
pest or weed control at 125 g/ha ([12]; Sorghum halepense, pre-emergence, 125 g ai/ha, scale 0 (no effect) to 100 (complete control), read-out: Johnsongrass plant response rating): 95%
pest or weed control at 16 g/ha ([13]; Ambrosia artemisiifolia, pre-emergence, 16 g ai/ha, scale 0 to 100 (0 no effect, 100 complete control), read-out: Ragweed plant response rating): 50%
pest or weed control at 62 g/ha ([13]; Ambrosia artemisiifolia, pre-emergence, 62 g ai/ha, scale 0 (no effect) to 100 (complete control), read-out: Ragweed plant response rating): 95%
pest or weed control at 125 g/ha ([13]; Ambrosia artemisiifolia, pre-emergence, 125 g ai/ha, scale 0 (no effect) to 100 (complete control), read-out: Ragweed plant response rating): 95%
pest or weed control at 16 g/ha ([14]; Abutilon theophrasti, pre-emergence, 16 g ai/ha, scale 0 to 100 (0 no effect, 100 complete control), read-out: Velvetleaf plant response rating): 80%
pest or weed control at 62 g/ha ([14]; Abutilon theophrasti, pre-emergence, 62 g ai/ha, scale 0 (no effect) to 100 (complete control), read-out: Velvetleaf plant response rating): 100%
pest or weed control at 125 g/ha ([14]; Abutilon theophrasti, pre-emergence, 125 g ai/ha, scale 0 (no effect) to 100 (complete control), read-out: Velvetleaf plant response rating): 100%
Pigweed plant response rating [15, 17]: 85
pest or weed control at 16 g/ha ([15]; Amaranthus retroflexus, post-emergence, 16 g ai/ha, postemergence, 0 is no effect, 100 is complete control, read-out: Plant response rating (0 to 100), Pigweed): 80%
pest or weed control at 125 g/ha ([15]; Amaranthus retroflexus, post-emergence, 125 g ai/ha, postemergence, visual rating, scale 0 to 100 (0 no effect, 100 complete control), read-out: Plant response rating, Pigweed): 98%
pest or weed control at 62 g/ha ([15]; Amaranthus retroflexus, post-emergence, Postemergence, 62 g ai/ha, scale 0 to 100 (0 no effect, 100 complete control), read-out: Plant response rating, Pigweed): 90%
Waterhemp plant response rating [16, 17]: 85
pest or weed control at 16 g/ha ([16]; Amaranthus tuberculatus, post-emergence, 16 g ai/ha, postemergence, 0 is no effect, 100 is complete control, read-out: Plant response rating (0 to 100), Waterhemp): 75%
pest or weed control at 125 g/ha ([16]; Amaranthus tuberculatus, post-emergence, 125 g ai/ha, postemergence, visual rating, scale 0 to 100 (0 no effect, 100 complete control), read-out: Plant response rating, Waterhemp): 90%
pest or weed control at 62 g/ha ([16]; Amaranthus tuberculatus, post-emergence, Postemergence, 62 g ai/ha, scale 0 to 100 (0 no effect, 100 complete control), read-out: Plant response rating, Waterhemp): 90%

FC(F)(F)c1cnn(-c2c(Cl)cccc2Oc2ncc(Cl)cn2)c1 [Compound 167]
Morningglory plant response rating (0 to 100 scale) [1]: 90
Morningglory plant response rating [1, 18]: 100
Velvetleaf plant response rating (0 to 100 scale) [2]: 80
Velvetleaf plant response rating [2, 18]: 100
Wheat plant response rating (0 to 100 scale) [3]: 0
Wheat plant response rating [3, 18]: 50
Morningglory plant response rating [4]: 80
Plant response rating, Morningglory ([4]; 500 g ai/ha): 100
Velvetleaf plant response rating [5]: 100
Plant response rating, Velvetleaf ([5]; 500 g ai/ha): 100
Wheat plant response rating ([6]; 125 g ai/ha): 20
Plant response rating, Wheat ([6]; 500 g ai/ha): 60
Plant response rating, Sedge, Umbrella [7]: 98
Plant response rating, Ducksalad [8]: 100
Blackgrass plant response rating ([9]; 16 g ai/ha, preemergence, scale 0 to 100 (0 no effect, 100 complete control)): 30
Blackgrass plant response rating ([9]; 62 g ai/ha, preemergence, scale 0 (no effect) to 100 (complete control)): 90
Blackgrass plant response rating ([9]; 125 g ai/ha, preemergence, scale 0 (no effect) to 100 (complete control)): 90
Plant response rating, Blackgrass ([9]; Preemergence, 31 g ai/ha, scale 0 to 100, 0 no effect, 100 complete control): 30
Ryegrass, Italian plant response rating [10, 19]: 5
Ryegrass, Italian plant response rating [10, 20]: 80
Ryegrass, Italian plant response rating [10, 21]: 90
Wheat plant response rating [11, 19]: 0
Wheat plant response rating [11, 20]: 5
Wheat plant response rating [11, 21]: 50
Johnsongrass plant response rating [12, 19]: 5
Johnsongrass plant response rating [12, 20]: 80
Johnsongrass plant response rating [12, 21]: 95
Ragweed plant response rating [13, 19]: 15
Ragweed plant response rating [13, 20]: 15
Ragweed plant response rating [13, 21]: 20
Velvetleaf plant response rating [14, 19]: 45
Velvetleaf plant response rating [14, 20]: 100
Velvetleaf plant response rating [14, 21]: 100
Plant response rating (0 to 100), Pigweed [15, 22]: 80
Pigweed plant response rating [15, 17]: 90
Plant response rating, Pigweed [15, 23]: 98
Plant response rating, Pigweed [15, 24]: 95
Plant response rating (0 to 100), Waterhemp [16, 22]: 65
Waterhemp plant response rating [16, 17]: 75
Plant response rating, Waterhemp [16, 23]: 98
Plant response rating, Waterhemp [16, 24]: 85
